# In US20050245534A1, “Inhibitors of the 11-beta-hydroxysteroid dehydrogenase Type 1 enzyme” (priority 2004, published 2005):
# Key:
# healthy volunteers = conditions: seven days; cited from earlier work
# Male CD-1 mice = assay: Mouse Dehydrocorticosterone Challenge Model, plasma corticosterone; assay type: in vivo
# Description: Male CD-1 (18-22 g) mice (Charles River, Madison, Wis.) were group housed and allowed free access to food and water. Mice are brought into a quiet procedure room for acclimation the night before the study. Animals are dosed with vehicle or compound at various times (pretreatment period) before being challenged with 11-dehydrocorticosterone (Steraloids Inc., Newport, R.I.). Thirty minutes after challenge, the mice are euthanized with CO2 and blood samples (EDTA) are obtained by cardiac puncture and immediately placed on ice. Blood samples were then spun, the plasma was removed, and the samples frozen until further analysis was performed. Corticosterone levels were obtained by ELISA (American Laboratory Prod., Co., Windham, N.H.) or HPLC/mass spectroscopy.
# [1] = tested on: Male B6.VLep ob(-/-) (ob/ob) mice; assay: ob/ob Mouse Model of Type 2 Diabetes; assay type: in vivo; conditions: three weeks
# Description: Male B6.VLep^ob(−/−) (ob/ob) mice and their lean littermates (Jackson Laboratory, Bar Harbor, Me.) were group housed and allowed free access to food (Purina 5015) and water. Mice were 6-7 weeks old at the start of each study. On day 0, animals were weighed and postprandial glucose levels determined (Medisense Precision-X™ glucometer, Abbott Laboratories). […] Animals were weighed, and postprandial glucose measurements were taken weekly throughout the study. On the last day of the study, 16 hours post dose (unless otherwise noted) the mice were euthanized via CO2, and blood samples (EDTA) were taken by cardiac puncture and immediately placed on ice. Whole blood measurements for HbA1c were taken with hand held meters (A1c NOW, Metrika Inc., Sunnyvale Calif.). Blood samples were then spun and plasma was removed and frozen until further analysis. The plasma triglyceride levels were determined according to instructions by the manufacturer (Infinity kit, Sigma Diagnostics, St. Louis Mo.).
smiles,measurement,setting,value
CC1(C)[C@@H](OC(=O)CCC(=O)O)CC[C@]2(C)[C@H]3C(=O)C=C4[C@@H]5C[C@@](C)(C(=O)O)CC[C@]5(C)CC[C@@]4(C)[C@]3(C)CC[C@@H]12 [carbenoxolone],reduction of IOP,healthy volunteers,17%
"C[C@]12CC(=O)[C@H]3[C@@H](CCC4=CC(=O)CC[C@@]43C)[C@@H]1CC[C@@H]2C(=O)CO [Example 11-DHC, 11-dehydrocorticosterone, reference compound]",Plasma corticosterone levels,"Male CD-1 mice; 11-DHC challenge without compound, pretreatment period 0.5 hours",1478 ± 180
same,Plasma corticosterone levels,"Male CD-1 mice; 11-DHC challenge without compound, pretreatment period 16 hours",1200 ± 86
"CC(C(=O)NC1C2CC3CC1CC(O)(C3)C2)N1CCN(c2ccc(C(F)(F)F)cn2)CC1 (stereo not shown) [Compound F, N-[(E)-5-hydroxy-2-adamantyl]-2-{4-[5-(trifluoromethyl)pyridin-2-yl]piperazin-1-yl}propanamide]",% HbA1c,[1]; 30 mpk twice daily,7.6 ± 0.6%
same,Glucose,[1]; 30 mpk twice daily,295 ± 31 mg/dL
same,Triglycerides,[1]; 30 mpk twice daily,255 ± 22 mg/dL
same,% HbA1c,[1]; 100 mpk twice daily,6.4 ± 0.5%
same,Glucose,[1]; 100 mpk twice daily,263 ± 21 mg/dL
same,Triglycerides,[1]; 100 mpk twice daily,282 ± 36 mg/dL
same,Plasma corticosterone levels,"Male CD-1 mice; 30 mpk followed by 11-DHC, pretreatment period 0.5 hours",1297 ± 121
same,Plasma corticosterone levels,"Male CD-1 mice; 30 mpk followed by 11-DHC, pretreatment period 16 hours",1402 ± 99
same,Plasma corticosterone levels,"Male CD-1 mice; 100 mpk followed by 11-DHC, pretreatment period 0.5 hours",742 ± 119
same,Plasma corticosterone levels,"Male CD-1 mice; 100 mpk followed by 11-DHC, pretreatment period 16 hours",1422 ± 129
